Reference: patent US20240084305A1, “MODULATORS OF CELL PROLIFERATION AND USES THEREOF” (Kumquat Biosciences Inc., priority 2020, published 2024)

Experiments:
Format in all cases: cell-based
[1] = system: A427, ASPC1 and Ls513 cancer cell lines (KRAS G12D mutation); assay: cell growth inhibition in 3D suspension culture after lentiviral shRNA KRAS knockdown plus inhibitor, Bliss independence model; settings: for degree of synergy of cell growth inhibition (excess over Bliss): all cell lines tested
Text: This study explores the inhibition of a variety types (e.g., Kras G12D driven tumor cells) of cancer cells using a combination of nucleic-acid based Kras12D inhibitor and SOS inhibitor. Cell lines utilized include A427, a non-small cell lung cancer (NSCLC), ASPC1, a pancreatic cancer, and Ls513, colorectal cancer cell line. All three cell lines contain a KRAS G12D mutation. The cancer cell lines were adherently cultured in vitro and transduced with lentiviral particles packaged with shRNAs targeting either KRAS or negative control gene Luciferase.
Amphotropic lentiviruses were produced by the co-transfection of 293FT cells and were packaged using the ViraPower lentiviral expression system (ThermoFisher Scientific). Lentiviral shRNA clones targeting luciferase (as sh-Ctrl) and KRAS were obtained from Sigma in the MISSION pLKO.1-puro vector with clone IDs as follows: shKRAS #1: TRCN0000033262, NM_033360.2-509s1c1, shKRAS #2: TRCN0000033260, NM_033360.2-407s1c1, and the Luciferase shRNA control plasmid DNA (Cat #SHC007, Sigma). Viral supernatants were filtered through a 0.45 µm filter and supplemented with […] of polybrene (Sigma) and added to 70% confluent cells pre-plated in six-well dishes. Plates were spinfected for 1 h under 600×g at 37° C. centrifugation. Cells were subsequently washed with PBS and allowed to rest 48 hours in fresh culture media at 37° C. Next, cells were reseeded as 3D suspensions (ultra-low adherent plates) into 384 well plates in RPMI medium containing 10% FBS. Approximately 24 hrs later, 10 uM SOS inhibitor as described herein or DMSO (as negative control) was added to the cell cultures for a period of about 5 days. […] The degree of synergy for the combination across cell lines was calculated by using the Bliss independence model. […] The greater the departure from Bliss indicates more profound synergy: <0 is no synergism, 0.05-0.1 is mild synergy, 0.1-0.2 moderate synergy, and >0.2 is robust synergy.
Amphotropic lentiviruses were produced in the same manner as described in the preceding Example 6. 1 uM SHP2 inhibitor as described herein or DMSO (as negative control) was added to the cell cultures for a period of about 5 days. […] The degree of synergy for the combination across cell lines was calculated by using the Bliss independence model. […] The greater the departure from Bliss indicates more profound synergy: <0 is no synergism, 0.05-0.1 is mild synergy, 0.1-0.2 moderate synergy, and >0.2 is robust synergy.
Amphotropic lentiviruses were produced in the same manner as described in the preceding Example 6. […] The concentration of the respective EGFR inhibitors utilized in this cell assay was chosen to be within the range corresponding to achievable exposures and pharmacokinetics of a recommended and clinically relevant doses applied in human. […] The degree of synergy for the combination across cell lines was calculated by using the Bliss independence model as exemplified in the preceding Example 6.
Amphotropic lentiviruses were produced in the same manner as described in the preceding Example 6. 3 nM of Trametinib or DMSO (negative control) was added to the cell cultures for a period of about 5 days. The concentration of the MEK inhibitor utilized in this cell assay was chosen to be within the range corresponding to achievable exposures and pharmacokinetics of a recommended and clinical relevant dose applied in human. […] The degree of synergy for the combination across cell lines was calculated by using the Bliss independence model as exemplified in the preceding Example 6.
Amphotropic lentiviruses were produced in the same manner as described in the preceding Example 6.

[2] = system: A427, ASPC1, Panc04.03, Ls174T, Ls513, AGS and HEClA cancer cell lines (KRAS G12D mutation); assay: 3D proliferation assay (ultra-low attachment plates), small molecule Kras12D inhibitor plus second inhibitor, Bliss independence model
Text: This study explores the inhibition of a variety types of cancer cells (e.g., KRAS G12D driven tumor cells) using a combination of small molecule based Kras12D inhibitor and SOS inhibitor. Cell lines from multiple indications were utilized and include the A427 (a non-small cell lung cancer, “NSCLC”), ASPC1 and Panc04.03 (both pancreatic cancer), Ls174T and Ls513 (both colorectal cancer), AGS (a gastric cancer), and HEClA (an endometrial cancer cell line). All cell lines contain a KRAS G12D mutation. The seven cancer cell lines were cultured in vitro in a 3D proliferation assay where cells are grown in ultra-low attachment surface cell culture plates in RPMI medium containing ˜10% FBS. Cells were incubated with different concentrations of SOS inhibitor (e.g., 10 uM, 3 uM, or 1 uM) and with different concentrations of a Kras12D inhibitors (either Compound A, Compound B, or Compound C, e.g., 0.1 uM, 0.3 uM, 1.0 uM, 3.0 uM) for a period of 5 days. […] The degree of synergy for the combination across cell lines was calculated by using the Bliss independence model as described herein. […] The greater the departure from Bliss indicates more profound synergy: ≤0 indicates no synergism, 0.05-0.1 indicates mild synergy, 0.1-0.2 indicates moderate synergy, and >0.2 indicates robust synergy.
This study explores the inhibition of a variety types of cancer cells (e.g., KRAS G12D driven tumor cells) using a combination of small molecule based Kras12D inhibitor and SHP2 inhibitor. Cell lines from multiple indications were utilized and include the A427 (a non-small cell lung cancer, “NSCLC”), ASPC1 and Panc04.03 (both pancreatic cancer), Ls174T and Ls513 (both colorectal cancer), AGS (a gastric cancer), and HEClA (an endometrial cancer cell line). All cell lines contain a KRAS G12D mutation. The seven cancer cell lines were cultured in vitro in a 3D proliferation assay where cells are grown in ultra-low attachment surface cell culture plates in RPMI medium containing 10% FBS. Cells were incubated with different concentrations of SHP2 inhibitor (e.g., 10 uM, 3 uM, or 1 uM) and with different concentrations of a Kras12D inhibitors (either Compound A, Compound B, or Compound C, e.g., 0.1 uM, 0.3 uM, 1.0 uM, 3.0 uM) for a period of 5 days. […] The degree of synergy for the combination across cell lines was calculated by using the Bliss independence model as described in the preceding examples.
The study explores the inhibition of a variety types of cancer cells (e.g., KRAS G12D driven tumor cells) using a combination of small molecule based Kras12D inhibitor and EGFR inhibitor.

[3] = system: A427, ASPC1, Panc04.03, Ls174T, Ls513, AGS and HEClA cancer cell lines (KRAS G12D mutation); assay: as above; settings: for cell growth inhibition: across the cell line panel; for maximal cell growth inhibition, on average: average over cell line panel

SMILES: C#Cc1cccc(Nc2ncnc3cc(OCCOC)c(OCCOC)cc23)c1 [erlotinib]
- inhibition at 3 µM ([1]; 3 uM in combination with nucleic-acid based Kras12D inhibitor, pancreatic, colorectal and NSCLC cell lines): ≤ 75%
- inhibition at 3 µM ([1]; 120 h, single agent, 3 uM, about 5 days): < 30%
- cell growth inhibition ([2]; erlotinib as single agent, across its concentration range (up to 10 uM), across the cell line panel): no more than 72%
- maximal cell growth inhibition response, on average ([2]; erlotinib as single agent, average over cell line panel): under 50%

SMILES: CC(=O)c1c(C)c2cnc(Nc3ccc(N4CCNCC4)cn3)nc2n(C2CCCC2)c1=O [palbociclib]
- cell growth inhibition ([1]; 0.3 uM CDK4/6 inhibitor (Palbociclib) in combination with nucleic-acid based Kras12D inhibitor): up to 79%
- cell growth inhibition ([3]; CDK4/6 inhibitor (palbociclib) as single agent, across its concentration range (up to 1 uM)): no more than 81%
- maximal cell growth inhibition, on average ([3]; CDK4/6 inhibitor (palbociclib) as single agent): about 48%

SMILES: Cc1c(C#N)cccc1[C@@H](C)Nc1nnc(C)c2cnc(N3CCOCC3)cc12 [SOS inhibitor]
- degree of synergy of cell growth inhibition (excess over Bliss) ([1]; 10 uM SOS inhibitor in combination with nucleic-acid based Kras12D inhibitor (shRNA KRAS), about 5 days): robust (>0.2 is robust synergy)
- cell growth inhibition ([2]; SOS inhibitor as single agent, across its concentration range (up to 10 uM), across the cell line panel): no more than 50%
- cell growth inhibition ([2]; SOS inhibitor tested alone (FIG. 12 cell lines)): no significant cell growth inhibition

SMILES: Cc1nc(NC(=O)N2CCC[C@H]2C(N)=O)sc1-c1ccnc(C(C)(C)C(F)(F)F)c1 [BYL719]
- cell growth inhibition ([1]; 0.3 uM PI3K-alpha inhibitor (BYL719) in combination with nucleic-acid based Kras12D inhibitor): up to 87%
- degree of synergy of cell growth inhibition (excess over Bliss) ([1]; 0.3 uM PI3K-alpha inhibitor (BYL719) in combination with nucleic-acid based Kras12D inhibitor, 5 days): little to moderate
- cell growth inhibition ([3]; PI3Ka inhibitor (BYL719) as single agent, across its concentration range (up to 10 uM)): no more than 88%
- maximal cell growth inhibition, on average ([3]; PI3Ka inhibitor (BYL719) as single agent): about 58%

SMILES: CC(=O)Nc1cccc(-n2c(=O)n(C3CC3)c(=O)c3c(Nc4ccc(I)cc4F)n(C)c(=O)c(C)c32)c1 [Trametinib, trametinib]
- inhibition at 0.003 µM ([1]; 3 nM Trametinib in combination with nucleic-acid based Kras12D inhibitor): ≤ 89%
- inhibition at 0.003 µM ([1]; single agent, 3 nM Trametinib): < 50%
- cell growth inhibition ([3]; MEK inhibitor as single agent, across its concentration range (up to 0.01 uM)): no more than 68%
- maximal cell growth inhibition, on average ([3]; MEK inhibitor as single agent): about 42%

SMILES: C[C@@H]1OCC2(CCN(c3cnc(Sc4ccnc(N)c4Cl)c(N)n3)CC2)[C@@H]1N [SHP2 inhibitor, (3S,4S)-8-(6-amino-5-((2-amino-3-chloropyridin-4-yl)thio)pyrazin-2-yl)-3-methyl-2-oxa-8-azaspiro[4.5]decan-4-amine]
- degree of synergy of cell growth inhibition (excess over Bliss) ([1]; 1 uM SHP2 inhibitor in combination with nucleic-acid based Kras12D inhibitor (shRNA KRAS), about 5 days): moderate (0.1-0.2 moderate synergy)
- cell growth inhibition ([2]; SHP2 inhibitor as single agent, across its concentration range (up to 10 uM), across the cell line panel): no more than 75%
- maximal cell growth inhibition, on average ([2]; SHP2 inhibitor as single agent, average over cell line panel): about 36%

SMILES: CN(C)C/C=C/C(=O)Nc1cc2c(Nc3ccc(F)c(Cl)c3)ncnc2cc1O[C@H]1CCOC1 [afatinib]
- inhibition at 0.1 µM ([1]; 0.1 uM in combination with nucleic-acid based Kras12D inhibitor, pancreatic, colorectal and NSCLC cell lines): ≤ 75%
- inhibition at 0.1 µM ([1]; 120 h, single agent, 0.1 uM, about 5 days): < 30%
- cell growth inhibition ([3]; afatinib as single agent, across its concentration range (up to 1 uM)): no more than 86%
